Several values for one entry are separate records, joined by “and”; a condition that tells them apart may be missing. Equal entries are not always repeated. Where two headings read alike, the source gives them in different places.
Tests used:
[1] = target: T1, L-RANKL (Rattus norvegicus, UniProt Q9ESE2, D175N); assay: STD NMR binding assay with L-RANKL; conditions: 100 μM protein, 5 mM compound
T1 construct: (3) mRANKL (sRANKL-GSGS-sRANKL, rat 159-318 aa); His6-sumo (N); made in house; host or cells: Escherichia coli BL21 (DE3)
T1 sequence (Q9ESE2 with tags, fused parts or gaps D175N): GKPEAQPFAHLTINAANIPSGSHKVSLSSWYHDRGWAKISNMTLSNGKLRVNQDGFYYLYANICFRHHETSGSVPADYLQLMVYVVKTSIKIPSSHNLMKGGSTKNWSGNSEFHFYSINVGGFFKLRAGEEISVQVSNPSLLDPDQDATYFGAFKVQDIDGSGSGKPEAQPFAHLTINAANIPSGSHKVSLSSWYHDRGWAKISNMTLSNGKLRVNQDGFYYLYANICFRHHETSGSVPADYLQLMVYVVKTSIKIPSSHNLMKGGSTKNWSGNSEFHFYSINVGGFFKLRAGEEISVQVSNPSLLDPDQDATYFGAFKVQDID
Experimental: For NMR studies, purified sRANKL or L-RANKL protein samples were buffer exchanged into PBS (Gbico, C10010500BT, pH7.4) using a Millipore spin column (1500 × g for 15 min at 4 °C, repeated six times, each time adding fresh PBS and discarding the flow-through). Protein concentration was determined using BCA method according to the procedure of Pierce^TM BCA Protein Assay Kit (Thermo Fisher Scientific). Compound S3-15 powder was dissolved in H2O as a concentration of 10 mM.
Protein saturation transfer difference (STD) experiments were performed on Bruker Avance III 500 (500 MHz) spectrometer (Columbia University) at 300 K using triple-resonance cryogenic probes optimized for proton detection. All experiments were performed using an independent sample for each experimental measurement as a 500 μL sample in NMR tubes with 100 μM protein and […] S3-15 in final concentration. Uniformly, for STD assay all samples were contained 50 μL protein, 200 μL S3-15 (10 mM in H2O), and 250 μL D2O; for S3-15 two-dimensional spectra reference, samples were 50 μL PBS, 200 μL S3-15 (10 mM in H2O) and 250 μL D2O.

[2] = tested on: WT sRANKL induced osteoclast formation with H226A/W194A sRANKL; assay: Rescue experiment: WT sRANKL combined with W194A or H226A sRANKL; format: cell-based, mouse; parameters: osteoclast formation (fig. S4b): unit not given here; conditions: S3-15 10 μM; for OC numbers: 100 ng/mL WT sRANKL
Experimental: For the osteoclast formation induced by WT and Q238A sRANKL experiments, BMMs were seeded in 96-well plate in density of 6 × 10^3 cell/ well with α-MEM completed medium containing 10 ng/mL M-CSF for 24 h. Then the cells were treated with 0 μM, 0.3 μM, 3 μM and 10 μM and stimulated with 100 ng/mLWT sRANKL or Q238A sRANKL respectively. For the osteoclast formation induced by WT, W194A, and H226A sRANKL experiments, cells were stimulated with 100 ng/mL WT sRANKL combined W194A, H226A sRANKL in different concentrations (50 ng/mL, 200 ng/mL, and 400 ng/mL) with or without 10 μM S3-15. After 5 days, osteoclasts were formed, and applied TRAP-staining as described above. TRAP-positive multinucleated cells with > 3 nuclei were scored as osteoclasts.

[3] = tested on: mature osteoclasts; assay: Osteoclasts apoptotic activity assay; format: cell-based, mouse
Experimental: Mature osteoclasts were generated according to “Primary cultures of BMMs and osteoclastogenesis assay”. Mature osteoclasts were treated with or without compounds for 24 h[53]. At the end of incubation, cells were fixed with 4% paraformaldehyde and applied TRAP-staining. Apoptosis and cell death was measured by in situ fluorescence staining with AnnexinV-FITC (Beyotime Biotechnology) and prodidium iodide or DAPI staining flowing by their instructions. TRAP-positive cells, Annexin V, PI, and DAPI were visualized by Leica fluorescence microscopic.

[4] = tested on: OVX mice; assay: Three-point bending test of femur (biomechanical strength); format: in vivo, mouse; conditions: OVX mice + S3-15, individual animals
Experimental: The weight of rats or mice were recorded every week in the treatment period. After treatment, the rats were harvested, the serum, heart, liver, spleen, lung, kidney, thymus, and femurs were all collected and subjected to subsequent analysis. The right femurs of rats or mice were cleaned excess soft tissue, fixed in 10% formalin, and processed them for microcomputed tomography (micro-CT) analysis. Left mice femurs were collected and excarnate for biomechanical strength testing. Mice peripheral blood were as well as collected for flow cytometry analyzing.

[5] = tested on: NF-κB, MAPK and PI3K-AKT signaling; assay: Western blotting of RANKL-RANK signaling in RAW264.7 cells; format: cell-based, mouse; conditions: RAW264.7, 5 μM
Experimental: (§1) The mRNA expression level of S3-15 was measured by RT–qPCR as primary described. Total cellular RNA sample was prepared using RNAiso Plus, followed by reverse transcription with PrimeScript™ MixRT Master Mix reverse transcriptase kit. Then quantitative real-time PCR assays were performed with TB Green™ premix EX Taq™ II kit on an Applied Biosystems. […] signaling inhibiting effect was determined by western blotting. RAW264.7 cells were treated with 5 μM S3-15 with or without sRANKL (100 ng/mL) for 5, 10, 30 and 60 min after starved for 1 h. Then the cells were washed with cold PBS and lysed by RIPA Lysis Buffer. Cell lysates were then processed for Western Blotting analyses. Primary antibody binding was detected using rat secondary antibodies (1:5000) coupled with enhanced chemiluminescence (ECL) reagents (Thermo Scientific) and visualized on Tanon 5200. Primers used for qPCR and antibodies used for western blotting were seen supplementary materials for details.

[6] = tested on: osteoclast markers (DC-stamp, Ctsk, MMP9, Tracp, Oscar, Calcr); assay: RT-qPCR of osteoclast marker genes in BMMs; format: cell-based, mouse
Experimental: as §1

[7] = tested on: human sRANKL and human OPG; assay: In vitro pull-down assay of sRANKL binding to OPG
Experimental: To evaluate whether S3-15 affects the binding of sRANKL or mRANKL to OPG, we did the pull-down assay.
sRANKL-OPG: 200 ng human sRANKL with his-sumo tag was incubated with Ni gel at 4 °C for 10 min. Then the Ni gel was washed with PBS for 3 times. 500 μL PBS that contains 100 ng Fc tag human OPG. Then S3-15 was treated in different concentration (0, 10, 1 and 0.3 μM). The mixtures were incubating at 4 °C for 30 min. Washed with PBS for 3 times. 500 μL 1% Triton X-100 in PBS was then added at 4 °C. The concentration of OPG was tested by OPG ELISA kit (USCN, China).

[8] = BMMs, 100 ng/mL sRANKL + S3-15, relative to vehicle
[9] = versus Vehicle, three replicates

Question: Which “STD-NMR binding to L-RANKL (mRANKL)” value [1] does the source give for `CC(=O)/C(=N\Nc1ccccc1C(=O)O)C(=O)Nc1ccccn1` [S3-15] here?
Answer: low binding affinity

Question: And the OC numbers ([2]; H226A RANKL 0 ng/mL)?
Answer: 36 and 29

Question: What about the OC numbers ([2]; H226A RANKL 50 ng/mL) of the same molecule?
Answer: 173 and 156 and 170

Question: What about the OC numbers ([2]; H226A RANKL 200 ng/mL) of the same molecule?
Answer: 113 and 121 and 125

Question: And the “osteoclast formation (fig. S4b)” value ([2]; W194A RANKL 0 ng/mL)?
Answer: 34 and 49 and 27

Question: And the “osteoclast formation (fig. S4b)” value ([2]; W194A RANKL 50 ng/mL)?
Answer: 147 and 144 and 140

Question: And the “osteoclast formation (fig. S4b)” value ([2]; W194A RANKL 200 ng/mL)?
Answer: 145 and 199 and 158

Question: And the “osteoclast formation (fig. S4b)” value ([2]; W194A RANKL 400 ng/mL)?
Answer: 119 and 118 and 97

Question: What about the EC50 ([3]; Mus musculus, Osteoclast, 24 h treatment, read-out: EC50, apoptosis of mature osteoclasts) of the same molecule?
Answer: 0.55 µM

Question: What about the “dead osteoclast quantification (fig. 6f)” value ([3]; mature osteoclasts, vehicle 41, 55, 67) of the same molecule?
Answer: 227 and 290 and 265

Question: What about the Femur ultimate load [4] of the same molecule?
Answer: 16.2764 N and 16.6572 N and 19.3534 N and 19.5584 N and 18.4846 N and 18.452 N and 16.2074 N and 13.318 N

Question: What about the “MAPK signaling (phosphorylation of ERK, JNK, p38)” value [5] of the same molecule?
Answer: abrogated MAPK signaling

Question: What about the “PI3K-AKT signaling (phosphorylation of PI3K, AKT)” value [5] of the same molecule?
Answer: reduced PI3K-AKT signaling

Question: What about the “RANKL-induced NF-κB signaling (phosphorylation of IKKα, IκBα, p65)” value [5] of the same molecule?
Answer: suppresses RANKL-induced NF-κB signaling

Question: And the “osteoclastogenesis related gene expression without RANKL” value ([6]; BMMs without RANKL)?
Answer: cannot affect

Question: And the “Calcr mRNA expression” value [6, 8]?
Answer: 452.218 and 472.155 and 436.053

Question: What about the “Ctsk mRNA expression” value [6, 8] of the same molecule?
Answer: 96.8459 and 61.7386 and 86.8018

Question: And the “DC-Stemp mRNA expression” value [6, 8]?
Answer: 112.451 and 102.455 and 155.105

Question: And the “MMP9 mRNA expression” value [6, 8]?
Answer: 167.711 and 113.637 and 211.945

Question: And the “Oscar mRNA expression” value [6, 8]?
Answer: 160.036 and 111.839 and 197.432

Question: What about the “Tracp mRNA expression” value [6, 8] of the same molecule?
Answer: 180.942 and 181.792 and 170.309

Question: What about the “Calcr relative expression (fig. S3i)” value [6, 9] of the same molecule?
Answer: 0.46 and 0.59 and 1.1

Question: What about the “Ctsk relative expression (fig. S3i)” value [6, 9] of the same molecule?
Answer: 1.05 and 0.94 and 2.17

Question: What about the “DC-Stamp relative expression (fig. S3i)” value [6, 9] of the same molecule?
Answer: 0.75 and 0.62 and 1.46

Question: And the “MMP9 relative expression (fig. S3i)” value [6, 9]?
Answer: 1.19 and 1.06 and 1.03

Question: What about the “Oscar relative expression (fig. S3i)” value [6, 9] of the same molecule?
Answer: 0.54 and 0.76 and 2.12

Question: And the “Tracp relative expression (fig. S3i)” value [6, 9]?
Answer: 0.53 and 0.95 and 1.32

Question: And the “sRANKL-OPG binding signal (fig. S4m)” value [7]?
Answer: 0.6462 and 0.65 and 0.761

Question: And the “sRANKL and OPG binding” value ([7]; 0.3 μM)?
Answer: cannot affects

Question: And the “sRANKL-OPG binding signal (fig. S4m)” value ([7]; 0.3)?
Answer: 0.7746 and 0.9001 and 1.2775

Question: And the “sRANKL and OPG binding” value ([7]; 10 and 1 μM)?
Answer: significantly suppressed
